According to patent US4130647A, “Methods for treating congestive heart failure and ischemic heart disease” (priority 1977, dated 1978):
“And” between values parts separate entries of the source, which are not always exact repeats. Equal values may be shown once.

Legend:
[1] = test system: patients with congestive heart failure; experiment: Hemodynamic effects of oral trimazosin in congestive heart failure (Example 2); assay type: in vivo, human
Procedure: Studies were performed in male patients with clinical and radiographic evidence of congestive heart failure due to ischemic or primary cardiomyopathy. To be eligible for the study patients had to have supine systolic blood pressure of at least 100 mm. Hg. and a supine resting cardiac index below 2.5 L/min./m^2, as measured by the non-invasive carbon dioxide rebreathing method [Franciosa, et al., J. Lab. Clin. Med., 88, 662 (1976) and Franciosa, et al., Circulation, 55, 449 (1977)]. Six patients met these criteria and were selected for the study.
After obtaining written informed consent, patients were entered into a 2 day dose finding period during which single daily doses of trimazosin were given and blood pressure and heart rate monitored for 4 hours. On day one 100 mg. was given; if no response or side effects occurred, 200 mg. was given the next day. For purposes of this study a response was defined as a fall in supine blood pressure to a level equal to 0.2 × control systolic pressure +76 mm. Hg. This formula was arbitrarily chosen so that patients with control systolic blood pressure as low as 100 mm. Hg. would be included, and their pressures could be reduced to 96 mm. Hg. Upon completion to the dose finding period, no trimazosin was given for the next 24 hours to allow for washout of previous doses. After this, hemodynamic studies were performed employing the predetermined doses; if 200 mg. of trimazosin was ineffective, 300 mg. was given for hemodynamic studies.
On the day of hemodynamic studies, diuretics and other vasodilators were withheld but maintenance digitalis doses were given in order to obtain a reasonably steady hemodynamic state. Procainamide was given to the one patient who had been taking it chronically. Right heart catheterization was performed using a triple lumen Swan-Ganz catheter which was inserted percutaneously via an antecubital or femoral vein and positioned with its tip in the pulmonary artery and the proximal lumen in the right atrium [Swan, et al,. N. Engl. J. Med., 283, 447 (1970)]. A brachial artery was cannulated with a short teflon catheter inserted over an 18-guage thin walled needle. Catheters were connected to P23Db Statham pressure transducers and pressures recorded on a Hewlett-Packard multichannel physiological recorder. Transducers were positioned at the mid-chest level with the patient supine, and all measurements were made in this position. Heart rate was monitored from the electrocardiogram. Cardiac outputs were measured by the dye-dilution method using indocyanine green injected into the pulmonary artery and sampled from the brachial artery through a Gilford densitometer connected to the recorder. Forearm venous capacitance was measured by occlusion plethysmography employing a Whitney mercury-in-rubber resistance guage [Cohen, et al., Clin. Sci., 30, 267 (1966) and Mason, et al., Circulation, 32, 756 (1965)]. For this determination, the forearm was elevated and suspended in a cradle. The venous occluding cuff was inflated to 30 mm. Hg. and forearm girth allowed to equilibrate over 2-3 minutes. The change in forearm girth at this point was taken as a measure of venous capacitance.
Hemodynamic measurements were made before and at hourly intervals for 4 hours after administration of trimazosin. Pulmonary wedge pressure was taken as occluded pulmonary arterial pressure or pulmonary arterial diastolic pressure. These were not interchanged and only one was used in any given patient. Systemic vascular resistance was calculated as the difference between means systemic arterial and right atrial pressures divided by cardiac output. Pulmonary vascular resistance was calculated as mean pulmonary arterial pressure divided by cardiac output. […]

[2] = test system: patients with essential hypertension; conditions: cited from earlier work
[3] = 2 hours after trimazosin, individual patients
[4] = single oral doses of 50 to 150 mg.

SMILES: COc1cc2c(N)nc(N3CCN(C(=O)OCC(C)(C)O)CC3)nc2c(OC)c1OC [trimazosin, 2-hydroxy-2-methylpropyl 4-(4-amino-6,7,8-trimethoxy-2-quinazolinyl)-1-piperazinecarboxylate]
- cardiac index, patients not responding ([1]; 2 hours after trimazosin): failed to increase in 2 patients
- pulmonary arterial pressures, patients responding ([1]; 2 hours after trimazosin): fell in every patient
- Cardiac Index [1, 3]: 1.86 L/min./m^2 and 1.14 L/min./m^2 and 2.36 L/min./m^2 and 1.74 L/min./m^2 and 2.96 L/min./m^2 and 2.67 L/min./m^2
- Mean Pulmonary Arterial Pressure [1, 3]: 15 mm.Hg. and 39 mm.Hg. and 29 mm.Hg. and 49 mm.Hg. and 31 mm.Hg. and 40 mm.Hg.
- Mean Systemic Arterial Pressure [1, 3]: 82 mm.Hg. and 78 mm.Hg. and 88 mm.Hg. and 87 mm.Hg. and 73 mm.Hg.
- Pulmonary Vascular Resistance [1, 3]: 4 units and 18 units and 6 units and 15 units and 8 units
- Pulmonary Wedge Pressure [1, 3]: 3 mm.Hg. and 28 mm.Hg. and 23 mm.Hg. and 37 mm.Hg. and 18 mm.Hg. and 34 mm.Hg.
- Systemic Vascular Resistance [1, 3]: 23 units and 31 units and 16 units and 24 units and 15 units and 12 units
- Heart Rate, mean ([1]; 2 hours after trimazosin, mean dose 183.3 mg., control 88.0, ns): 85.0 beats/min.
- right atrial pressure ([1]; 2 hours after trimazosin, before 11.3 ± 2.1): 8.7 ± 1.6 mm. Hg.
- Cardiac Index, mean ([1]; 2 hours after trimazosin, control 1.76, ns): 2.12 L/min./m^2
- Pulmonary Vascular Resistance, mean ([1]; 2 hours after trimazosin, control 15.8, P <0.05): 9.5 units
- Systemic Vascular Resistance, mean ([1]; 2 hours after trimazosin, control 27.3, ns): 20.2 units
- Pulmonary Wedge Pressure, mean ([1]; 2 hours after trimazosin, control 30.7, P <0.01): 23.8 mm.Hg.
- Mean Pulmonary Arterial Pressure, mean ([1]; 2 hours after trimazosin, control 40.7, P <0.01): 33.8 mm.Hg.
- Mean Systemic Arterial Pressure, mean ([1]; 2 hours after trimazosin, control 91.2, P <0.05): 82.5 mm.Hg.
- pulmonary wedge pressure persistence ([1]; 4 hours after trimazosin): still significantly below control at 4 hours
- Heart Rate ([1]; T = 2 hours after trimazosin (100-300 mg.), individual patients): 96 beats/min. and 84 beats/min. and 75 beats/min. and 81 beats/min. and 78 beats/min.
- left ventricular function curve shift upward and leftward ([1]; after trimazosin): Only one patient failed to shift their left ventricular function curve upward and leftward
- stroke volume ([1]; after trimazosin): stroke volume was increased
- time of maximal increase of cardiac index ([1]; after trimazosin): 1 h
- time of maximal reduction of pulmonary wedge pressure ([1]; after trimazosin): 2 h
- time of peak decline of mean systemic arterial pressure ([1]; after trimazosin): 1.5 h
- time of peak effects of the various hemodynamic parameters ([1]; after trimazosin): 1 to 3 h
- diastolic pressure at peak effect ([1]; after trimazosin, control 74.8 ± 4.2, ns): 67.0 ± 2.9 mm. Hg.
- systolic arterial pressure at peak effect ([1]; after trimazosin, control 128.3, p<0.05): 116.8 ± 9.2 mm. Hg.
- heart rate change ([1]; following trimazosin): the decrease achieved statistical significance
- right atrial pressure and forearm veins, patients responding ([1]; following trimazosin): Right atrial pressure fell and forearm veins dilated in every patient
- right atrial pressure ([1]; one patient with normal pulmonary wedge pressure, fell from 5): 3 mm. Hg.
- tachycardia ([1]; patients with congestive heart failure): did not produce tachycardia
- cardiac output ([1]; patients with normal control cardiac output or normal control pulmonary wedge pressure): appeared to reduce cardiac output
- Heart Rate ([2]; hypertensives without heart failure): does not increase heart rate
- blood pressure [2, 4]: significantly lower blood pressure
- effect on heart rate [2, 4]: No significant effects
- effect on plasma renin activity [2, 4]: No significant effects
- side effect [2, 4]: Mild transient dizziness
- time of peak effect [2, 4]: between one and four hours
- time until effect was apparent [2, 4]: ≤ 30 min
